Counter-ions that a name gives are not always drawn.
How the values were obtained:
[1] = test system: atopic dermatitis-like skin inflammation induced by repeated applications of MC903; assay: Model mice of MC903-induced atopic dermatitis-like skin inflammation: auricle appearance and auricular thickness; assay type: in vivo, C57BL/6N female mice; details: 10 μL of 5 mM topically to each side of left auricle daily for 10 days, MC903 every other day; vs MC903 + EtOH
Protocol: (§1) The effect of KUS121 application on atopic dermatitis was evaluated. For modeling atopic dermatitis, model mice of atopic dermatitis-like skin inflammation induced by repeated applications of MC903, an active vitamin D3 analog, were used. Eight-week-old C57BL/6N female mice were used (purchased from SHIMIZU Laboratory Supplies Co., Ltd.). Under isoflurane anesthesia, the following substances were applied for 10 days. After 10 μL of 5 mM KUS121 (solvent: 90% EtOH) or 90% EtOH was applied to each side of the left auricle, 10 μL of 100 μM MC903 (solvent: 100% EtOH) was applied on each side. From the start of the substance application, KUS121 or 90% EtOH was applied daily and MC903 was applied every other day. The auricular thicknesses were measured immediately before the substance application using a constant pressured thickness measuring instrument (Tecloc). The thicknesses were measured immediately before the first substance application and then every other day for ten days. In addition, the effect of KUS121 alone was evaluated by the following substance applications. To each side of the left auricle 10 μL of 5 mM KUS121 was applied daily and to each side of the right auricle 10 μL of 90% EtOH was applied daily. The auricular thicknesses were measured immediately before the first substance application and then every other day for ten days. A blood sample was collected from a buccal vein on day 11 from the first substance application (14 hours after the substance application on day 10). The blood was allowed to stand at room temperature for at least 30 minutes, the serum was separated by centrifugation (1500×g, 10 minutes), and the serum levels of immunoglobulins (IgE and IgG1) was measured using Elisa kit (Bethyl Laboratories).
The experiments were performed as in Example 1, except for KUS187 was used in place of KUS121. The appearance of the auricle was observed and the auricular thicknesses were measured. […] The mice applied with MC903 and treated with EtOH had skin redness, desquamation, and crust as well as increased auricular thickness.

[2] = test system: skin barrier function; assay: Transepidermal water loss and auricular thickness in MC903-applied mice (skin barrier function); assay type: in vivo, C57BL6/N female mice; details: 5 mM topical daily for 12 days + MC903 every other day; vs MC903 + EtOH
Protocol: The effect of KUS121 application on skin barrier function was evaluated by determining transepidermal water loss. Six- to eight-week-old C57BL6/N female mice (purchased from Oriental Bioservice, Inc) were used. The mice were anesthetized by subcutaneously injecting 150 μL of three types of mixed anesthesia (1 mg/mL medetomidine hydrochloride, 5 mg/mL mitazolam, 5 mg/mL butorphanol tartrate, solvent: sterile distilled water). Under anesthesia the following substances were applied for 12 days. For each mouse 10 μL of 5 mM KUS121 was applied to each side of the left auricle and 10 μL of 90% EtOH was applied to each side of the right auricle. Some mice were additionally applied with 10 μL of 100 μM MC903 on each side of both auricles every other day; KUS121 or 90% EtOH was applied at first and then MC903 was applied. The levels of transepidermal water loss was determined using APO SCAN AS-VT100 (Asahi Techno Lab. ltd.). The auricular thicknesses were measured immediately before the first substance application and daily for subsequent 12 days. The levels of transepidermal water loss were determined on days 0, 2, 4, 6, 8, 10, 11, and 12 immediately before the substance applications in each day.

[3] = test system: psoriasis induced by repeated applications of 5% imiquimod cream; assay: Model mice of imiquimod-induced psoriasis: auricular thickness; assay type: in vivo, C57BL6/N female mice; details: 5 mM topical daily for 6 or 18 days + 5% imiquimod cream; vs imiquimod + EtOH
Protocol: The effect of KUS121 application on psoriasis was evaluated. For modeling psoriasis, model mice of psoriasis induced by repeated applications of 5% imiquimod cream was used. Six- to eight-week-old C57BL6/N female mice (purchased from Oriental Bioservice, Inc) were used. The mice were anesthetized by subcutaneously injecting 150 μL of three types of mixed anesthesia. Under anesthesia the following substances were applied for 6 or 18 days. After 10 μL of 5 mM KUS121 or 90% EtOH was applied to each side of the left auricle, 5 mg of 5% imiquimod cream (MOCHIDA PHARMACEUTICAL CO., LTD.) was applied on each side. KUS121 or 90% EtOH was applied daily and imiquimod cream was applied on days 0, 2, 4, 7, 9, 11, 14, and 16. The auricular thicknesses were measured immediately before the substance applications.

[4] = test system: Filaggrin (Flg); assay: Flg mRNA expression in auricular sections, real-time PCR; assay type: in vivo, C57BL/6N female mice; details: auricular sections day 11; Gapdh internal standard; 5 mM topical + MC903; vs MC903 + EtOH and EtOH alone
Protocol: (§2) After the blood collection in Example 1, the mice were sacrificed by cervical dislocation and auricular sections were collected. Some of the auricular sections were paraffin-embedded and other sections were served for RNA extraction. The paraffin-embedded sections were observed by hematoxylin-eosin (HE) staining. RNA was extracted from the sections and cDNA was synthesized. The expression levels of various genes were analyzed by real-time PCR with SYBR Green using each cDNA as a template. Gapdh was used as an internal standard.

[5] = test system: IgG1; assay: Serum IgG1 level (Elisa kit) in MC903 model mice; assay type: in vivo, C57BL/6N female mice; details: serum on day 11; 5 mM topical daily + MC903; vs MC903 + EtOH
Protocol: as §1, with “From the start of the substance application, KUS121 or 90% EtOH was applied daily and MC903 was applied every other day.” left out, “To each side of the left auricle 10 μL of 5 mM KUS121 was applied daily and to each side of the right auricle 10 μL of 90% EtOH was applied daily.” left out, “A blood sample was collected from a buccal vein on day 11 from the first substance application (14 hours after the substance application on day 10).” left out

[6] = test system: itching in atopic dermatitis-like skin inflammation induced by MC903; assay: Itching (scratching behavior) and auricular thickness in MC903 model mice, treatment started on day 6; assay type: in vivo, C57BL/6N female mice
Protocol: The effect of KUS121 application on itching was evaluated. For modeling itching, model mice of atopic dermatitis-like skin inflammation induced by repeated applications of MC903 were used. Eight-week-old C57BL/6N female mice (purchased from SHIMIZU Laboratory Supplies Co., Ltd.) were used. Under isoflurane anesthesia, the following substances were applied for 15 days. 10 μL of 100 μM MC903 was applied on each side of both auricles every three days. To each side of the left auricle 10 μL of 5 mM KUS121 was applied daily and to each side of the right auricle 10 μL of 90% EtOH was applied daily. The application of KUS121 or 90% EtOH was started on day 6 from the first substance application; KUS121 or 90% EtOH was applied at first and then MC903 was applied. On day 12 from the start of the treatment, 1 to 2 hours after the substance application, five mice awakened from anesthesia were left in a shooting box (SHINANO manufacturing CO., LTD, W 25×D 25×H 30 cm) and their behavior was recorded from above using a video camera (Victor). Scratching behavior was evaluated by counting the total number of ear contacts by the front paws and determining the total scratching time by the hind paws within one hour from the start of the recording. The data of the five mice were summed and the total values were adopted as the results.

[7] = test system: irritant contact dermatitis induced by sodium dodecyl sulfate (SDS); assay: Model mice of SDS-induced irritant contact dermatitis: auricular thickness; assay type: in vivo, C57BL6/J male mice; details: 5 mM topical daily for 4 days + 4% SDS daily; vs SDS + EtOH
Protocol: The effect of KUS121 application on irritant contact dermatitis was evaluated. For modeling irritant contact dermatitis, model mice of irritant contact dermatitis induced by sodium dodecyl sulfate (SDS) was used. Ten-week-old C57BL6/J male mice (purchased from Oriental Bioservice, Inc) were used. The mice were anesthetized by subcutaneously injecting 150 μL of three types of mixed anesthesia. Under anesthesia the following substances were applied for 4 days. After 10 μL of 5 mM KUS121 or 90% EtOH was applied to each side of the left auricle, 10 μL of 4% SDS was applied on each side. The substances were applied daily and the auricular thicknesses were measured immediately before the substance applications.

[8] = test system: Keratin 6a (Krt6a); assay: Krt6a mRNA expression in auricular sections, real-time PCR; assay type: in vivo, C57BL/6N female mice; details: auricular sections day 11; Gapdh internal standard; 5 mM topical + MC903; vs MC903 + EtOH
Protocol: as §2

[9] = test system: KLK7; assay: KLK7 mRNA expression in auricular sections of MC903 model mice; assay type: in vivo, C57BL/6N female mice; details: mice treated as in Example 1; 5 mM topical + MC903; vs MC903 + EtOH
Protocol: as §1, with “From the start of the substance application, KUS121 or 90% EtOH was applied daily and MC903 was applied every other day.” left out, “To each side of the left auricle 10 μL of 5 mM KUS121 was applied daily and to each side of the right auricle 10 μL of 90% EtOH was applied daily.” left out, “A blood sample was collected from a buccal vein on day 11 from the first substance application (14 hours after the substance application on day 10).” left out, “Laboratories). […]” for “Laboratories).”

[10] = test system: IgE; assay: Serum IgE level (Elisa kit) in MC903 model mice; assay type: in vivo, C57BL/6N female mice; details: serum on day 11; 5 mM topical daily + MC903; vs MC903 + EtOH
Protocol: as §1, with “From the start of the substance application, KUS121 or 90% EtOH was applied daily and MC903 was applied every other day.” left out, “To each side of the left auricle 10 μL of 5 mM KUS121 was applied daily and to each side of the right auricle 10 μL of 90% EtOH was applied daily.” left out, “A blood sample was collected from a buccal vein on day 11 from the first substance application (14 hours after the substance application on day 10).” left out

[11] = test system: epidermal thickening and infiltration of inflammatory cells into the dermis; assay: HE staining of auricular sections of MC903 model mice; assay type: in vivo, C57BL/6N female mice; details: auricular sections day 11; 5 mM topical daily + MC903; vs MC903 + EtOH
Protocol: as §2

Row | Compound | auricular thickness [1] | skin lesion (skin redness, desquamation, crust), appearance of auricle [1] | auricular thickness [2] | transepidermal water loss from auricular skin [2] | auricular thickness [3] | Flg expression (messenger RNA) [4] | blood level of IgG1 [5] | scratching behavior (number of ear contacts by front paws, scratching time by hind paws within one hour) ([6]; day 12, 5 mM topical daily from day 6, MC903 every three days, vs MC903 + EtOH) | increase of auricular thickness ([6]; treatment started after 6 days from the start of MC903 application, 5 mM topical daily) | auricular thickness [7] | Krt6a expression (messenger RNA) [8] | KLK7 expression (messenger RNA) [9] | blood level of IgE [10] | lesions in HE staining (epidermal thickening, infiltration of inflammatory cells such as eosinophils into the dermis) [11]
1 | Cc1cc(F)ccc1-c1ccc(/N=N/c2cc(S(=O)(=O)O)c3ccccc3c2N)cn1 [KUS121, 4-amino-3-[6-(4-fluoro-2-methylphenyl)pyridine-3-ylazo]naphthalene-1-sulfonic acid sodium salt] | less increased auricular thickness | less skin lesion | increases were suppressed | increases were suppressed | No difference | elevated | lower | less | suppressed | the increase was suppressed | weaker | the increase was suppressed | lower | suppressed more strongly
2 | CCCCOc1c(C=O)cc(C)cc1-c1ccc(/N=N/c2cc(S(=O)(=O)O)c3ccccc3c2N)cn1 [KUS187, 4-amino-3-[6-(3-formyl-2-butoxy-5-methylphenyl)pyridine-3-ylazo] naphthalene-1-sulfonic acid sodium salt] | less increased auricular thickness | less skin lesion | – | – | – | – | – | – | – | – | – | – | – | –

Source: US20240216397A1, “COMPOSITION FOR AMELIORATING SKIN TISSUE ABNORMALITY” (Kyoto University, priority 2021, published 2024)
